Our source for the EC50 values is ChEMBL document CHEMBL4610052, “Application of tandem biotransformation for biosynthesis of new pentacyclic triterpenoid derivatives with neuroprotective effect” (Bioorg Med Chem Lett, 2020).

SMILES strings stand for the structures. Some results are limits rather than exact numbers.

In this assay the test system is PC-12. The experiment in a line: Neuroprotective activity against CoCl2-induced neuronal injury in rat PC12 cells. Type of assay: functional, cell-based.
In turn, `CC1(C)[C@@H](O)CC[C@]2(C)[C@H]3CC=C4[C@@H]5C[C@](C)(CO)[C@@H](O)C[C@]5(C(=O)O)CC[C@@]4(C)[C@]3(C)[C@@H](O)C[C@@H]12` displayed an EC50 of 7.74 µM. For `CC1(C)C[C@H]2C3=CC[C@@H]4[C@@]5(C)CC[C@H](O)C(C)(C)[C@@H]5C[C@H](O)[C@@]4(C)[C@]3(C)CC[C@@]2(C(=O)O)C[C@@H]1O`, the EC50 is over 40 µM.

Consider `CC1(C)[C@@H](O)CC[C@]2(C)[C@H]3C(=O)C=C4[C@@H]5C[C@@](C)(C(=O)O[C@@H]6O[C@H](CO)[C@@H](O)[C@H](O)[C@H]6O)CC[C@]5(C)CC[C@@]4(C)[C@]3(C)CC[C@@H]12`, for which the EC50 was over 40 µM. `CC1(C)CC[C@]2(C(=O)O)CC[C@]3(C)C(=CC[C@@H]4[C@@]5(C)CC[C@H](O)C(C)(C)[C@@H]5CC[C@]43C)[C@@H]2C1` [OLEANOLIC_ACID] came in with an EC50 of 8.55 µM. The same measure for `OC[C@H]1O[C@@H](OCCc2ccc(O)cc2)[C@H](O)[C@@H](O)[C@@H]1O` [SALIDROSIDE]: 0.21 µM.

On to `CC1(C)[C@@H](O)CC[C@]2(C)[C@H]3C(=O)C=C4[C@@H]5C[C@@](C)(C(=O)O)CC[C@]5(C)CC[C@@]4(C)[C@]3(C)CC[C@@H]12` [ENOXOLONE], for which a half-maximal response (EC50) required 0.89 µM. For `CC1(C)[C@@H](O)CC[C@]2(C)[C@H]3C(=O)C=C4[C@@H]5C[C@@](C)(C(=O)O[C@@H]6O[C@H](CO)[C@@H](O)[C@H](O)[C@H]6O)CC[C@]5(C)CC[C@@]4(C)[C@]3(C)[C@@H](O)C[C@@H]12`, the EC50 is over 40 µM. The same measure for `CC1(C)[C@@H](O)CC[C@]2(C)[C@H]3C(=O)C=C4[C@@H]5C[C@@](C)(C(=O)O)CC[C@]5(C)CC[C@@]4(C)[C@]3(C)[C@@H](O)C[C@@H]12`: 1.76 µM; for `CC1(C)C[C@H]2C3=CC[C@@H]4[C@@]5(C)CC[C@H](O[C@H]6O[C@@H](CO)[C@H](O)[C@@H](O)[C@@H]6O)C(C)(C)[C@@H]5C[C@H](O)[C@@]4(C)[C@]3(C)CC[C@@]2(C(=O)O)C[C@@H]1O`: over 40 µM.

As to `CC1(C)[C@@H](O)CC[C@]2(C)[C@H]3CC=C4[C@@H]5C[C@](C)(C(=O)O)[C@@H](O)C[C@]5(C(=O)O)CC[C@@]4(C)[C@]3(C)[C@@H](O)C[C@@H]12`, the EC50 worked out at 0.48 µM.

In general, EC50 refers to the concentration needed to bring the measured effect to its halfway point. A low value points to a more potent agent.
